Test results taken from PMC12655551, “Design, Synthesis, and Evaluation of Pyrrole-Based Selective MAO-B Inhibitors with Additional AChE Inhibitory and Neuroprotective Properties Identified via Virtual Screening” (Pharmaceuticals, 2025).

Tests used:
[1] = test system: isolated rat brain mitochondria; assay: t-BuOOH-induced oxidative stress in isolated rat brain mitochondria; type: cell-based; conditions: 75 μM, vs non-treated mitochondria
Protocol: (§1) Two types of buffers were used for the isolation of the rat brain synaptosomes and mitochondria. Buffer A was 5 mM HEPES and 0.32 M Sucrose; Buffer B was 290 mM NaCl, 0.95 mM MgCl2 × 2H2O, 10 mM KCl, 2.4 mM CaCl2 × 2H2O, 2.1 mM NaH2PO4, 44 mM HEPES, 13 mM D-Glucose. For the gradient centrifugation, Percoll reagent was used. A stock solution of 90% Percoll was used to prepare 16%, 10% and 7.5% solutions. All the solutions were used as described below. Immediately after harvesting, synaptosomes, microsomes, and mitochondria were incubated with the exam compounds for 1 h. For assessing the possible neurotoxicity of the most MAOB active compounds, the sub-cellular fractions were incubated with 100 µM of them, and for evaluating their possible neuroprotective and antioxidant activities in different models of neurotoxicity, the sub-cellular fractions were incubated with 50µM of them. The protein measurement of all the sub-cellular fractions was made by the method of Lowry et al., 1951 [57].
The mitochondria were prepared by multiple differential fractionation using a Percoll gradient.
The mitochondria were incubated with 75 μM t-BuOOH [57].
After incubation of the mitochondria, 0.3 mL 0.2% TBA and 0.25 mL sulfuric acid (0.05 M) were added to stop the reaction. The tubes were maintained at 100 °C for 30 min. In the next stage, centrifugation of the tubes was carried out at 3500× g for 10 min. Assessment of the total quantity of MDA formed in each sample was measured in the supernatant at 532 nm.
After incubation of mitochondria, 0.04% DTNB was mixed with the mitochondrial suspensions in 0.1 M phosphate buffer (pH 7.4). The absorbance of the yellow product was measured at 412 nm.

AChE = target: T1, AChE (Electrophorus electricus, UniProt O42275); assay: biochemical; type: biochemical; conditions: for inhibition at 200 µM: 200 µM compound; for IC50: means ± SD of three experiments
T1 construct: purchased Sigma-Aldrich, Hamburg, Germany
T1 sequence (O42275 24-633): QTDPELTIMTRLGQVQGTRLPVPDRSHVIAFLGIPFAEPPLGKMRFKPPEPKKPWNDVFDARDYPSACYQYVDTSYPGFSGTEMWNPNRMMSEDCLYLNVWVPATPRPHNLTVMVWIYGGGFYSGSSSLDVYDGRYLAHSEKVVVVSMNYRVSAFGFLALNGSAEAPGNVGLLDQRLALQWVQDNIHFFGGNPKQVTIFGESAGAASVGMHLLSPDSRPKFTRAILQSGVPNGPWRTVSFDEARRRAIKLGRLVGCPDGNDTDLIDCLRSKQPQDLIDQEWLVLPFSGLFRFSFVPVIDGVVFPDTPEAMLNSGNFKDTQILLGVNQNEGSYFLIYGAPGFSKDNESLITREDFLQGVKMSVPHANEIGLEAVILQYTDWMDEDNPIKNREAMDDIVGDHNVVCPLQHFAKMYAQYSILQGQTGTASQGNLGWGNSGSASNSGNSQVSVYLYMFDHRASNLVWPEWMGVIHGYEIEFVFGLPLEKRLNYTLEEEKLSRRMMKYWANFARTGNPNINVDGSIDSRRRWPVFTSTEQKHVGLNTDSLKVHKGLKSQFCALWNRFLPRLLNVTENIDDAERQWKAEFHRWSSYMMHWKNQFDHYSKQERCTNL
Protocol: (§2) AChE and BChE inhibitory activity of the newly synthesized pyrrole-based compounds was measured using the microplate assay described by Ellman et al. with the modifications added by López et al.. The compounds were tested at concentrations between 0.01 and 200 μM. First, they were dissolved in phosphate buffer (PBS) (8 mM K2HPO4, 2.3 mM NaH2PO4, 0.15 M NaCl, pH 7.5), assisted by the addition of no more than 5% MeOH. Then, they were serially diluted with PBS to provide the concentration range needed. Acetylcholinesterase from Electrophorus electricus and butyrylcholinesterase from equine serum (Sigma-Aldrich, Hamburg, Germany) were used with a substrate solution of 5,5′-dithiobis(2-nitrobenzoic acid) (DTNB) with acetylthiocholine iodide (ATCI) or butyrylthiocholine iodide (BTCI), respectively (0.04 M Na2HPO4, 0.2 mM DTNB, 0.24 mM ATCI or BTCI, pH 7.5). A total of 50 μL of AChE or BChE (0.25 U/mL, in PBS) and 50 μL of the tested compound solution were added to the wells. Incubation of the plates was performed at room temperature for 30 min. Then, 100 μL of substrate solution was added to start the enzymatic reaction. […] Enzyme activity was calculated as an inhibition percentage compared to an assay including buffer instead of an inhibitor.

[2] = target: T2, recombinant human MAO-A (hMAOA) (Homo sapiens, UniProt P21397); assay: MAO-A inhibition, fluorometric Amplex UltraRed assay; type: biochemical; conditions: for inhibition at 1 µM: 1 µM compound, read-out: Inhibition Activity 1 µM MAO-A; for IC50: means ± SD of three experiments, read-out: MAO-A IC50
T2 sequence (P21397 1-527): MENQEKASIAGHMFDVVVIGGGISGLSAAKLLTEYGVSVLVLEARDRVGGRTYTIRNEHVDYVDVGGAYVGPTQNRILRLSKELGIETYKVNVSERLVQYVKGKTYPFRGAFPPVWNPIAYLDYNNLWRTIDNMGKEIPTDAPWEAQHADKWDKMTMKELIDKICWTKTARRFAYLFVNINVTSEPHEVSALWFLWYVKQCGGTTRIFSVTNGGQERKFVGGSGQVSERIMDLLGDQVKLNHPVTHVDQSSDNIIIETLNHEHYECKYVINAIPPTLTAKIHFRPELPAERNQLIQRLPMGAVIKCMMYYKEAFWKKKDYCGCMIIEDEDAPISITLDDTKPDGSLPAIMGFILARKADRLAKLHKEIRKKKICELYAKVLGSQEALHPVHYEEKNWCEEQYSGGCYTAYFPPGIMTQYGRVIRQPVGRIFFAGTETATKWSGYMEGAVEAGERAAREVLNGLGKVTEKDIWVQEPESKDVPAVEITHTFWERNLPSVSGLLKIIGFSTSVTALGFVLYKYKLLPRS
Protocol: (§3) Monoamine oxidase (MAO) activity for both recombinant human MAO-A (hMAOA) and MAO-B (hMAOB) was assessed using a fluorometric assay based on the Amplex® UltraRed reagent. This method, originally reported by Bautista-Aguilera et al. and later adapted with minor changes by Kasabova-Angelova et al., detects hydrogen peroxide or peroxidase activity present in enzymes or biological samples. In this assay, Amplex® Red reacts in a 1:1 molar ratio with hydrogen peroxide in the presence of peroxidase, producing the red-fluorescent compound resorufin. Due to resorufin’s strong extinction coefficient (58,000 ± 5000 cm^−1·M^−1), measurements could be accurately taken using either fluorometric or spectrophotometric methods. […] The control conditions included the use of purified hMAOA or hMAOB in reaction buffer, enzyme solutions with hydrogen peroxide, and buffer alone. All the test compounds were initially prepared at a 1 µM final concentration. These compounds were combined with either hMAOA or hMAOB and loaded into a 96-well plate (with eight replicates per test compound), followed by incubation for 30 min at 37 °C in the dark. Subsequently, a 50 µL detection mix was added to each well. This mix contained Amplex® Red, horseradish peroxidase (HRP), and tyramine substrate, all prepared in a reaction buffer. As this enzymatic reaction proceeded continuously, the fluorescence signal was recorded every 30 min (at 0, 30, 60, 90, 120, and 150 min) to track enzymatic kinetics.

[3] = target: T3, recombinant human MAO-B (hMAOB) (Homo sapiens, UniProt P27338); assay: biochemical; type: biochemical; conditions: for inhibition at 1 µM: 1 µM compound; for IC50 / MAO-B IC50: means ± SD of three experiments
T3 sequence (P27338 1-520): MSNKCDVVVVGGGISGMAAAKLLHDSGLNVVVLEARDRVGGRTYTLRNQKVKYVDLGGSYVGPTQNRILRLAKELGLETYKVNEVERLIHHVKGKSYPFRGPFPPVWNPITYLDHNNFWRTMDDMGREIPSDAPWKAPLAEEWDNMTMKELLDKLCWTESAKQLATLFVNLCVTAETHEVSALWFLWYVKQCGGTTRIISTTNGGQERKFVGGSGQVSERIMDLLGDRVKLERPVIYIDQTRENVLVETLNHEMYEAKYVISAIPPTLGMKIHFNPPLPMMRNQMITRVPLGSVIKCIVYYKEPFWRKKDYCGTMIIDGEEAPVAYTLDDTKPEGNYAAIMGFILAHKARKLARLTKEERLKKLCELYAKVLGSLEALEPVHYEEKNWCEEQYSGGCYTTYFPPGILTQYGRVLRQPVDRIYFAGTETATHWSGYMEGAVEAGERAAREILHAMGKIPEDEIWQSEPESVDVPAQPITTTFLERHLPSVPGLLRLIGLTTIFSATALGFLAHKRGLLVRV
Protocol: as §3

BChE = target: T4, BChE (Equus caballus, UniProt P81908); assay: biochemical; conditions: for IC50: means ± SD of three experiments, read-out: BChE IC50; for inhibition at 200 µM: read-out: Inhibition Activity 200 µM BChE
T4 construct: purchased Sigma-Aldrich, Hamburg, Germany; host or cells: equine serum
T4 sequence (P81908 whole entry): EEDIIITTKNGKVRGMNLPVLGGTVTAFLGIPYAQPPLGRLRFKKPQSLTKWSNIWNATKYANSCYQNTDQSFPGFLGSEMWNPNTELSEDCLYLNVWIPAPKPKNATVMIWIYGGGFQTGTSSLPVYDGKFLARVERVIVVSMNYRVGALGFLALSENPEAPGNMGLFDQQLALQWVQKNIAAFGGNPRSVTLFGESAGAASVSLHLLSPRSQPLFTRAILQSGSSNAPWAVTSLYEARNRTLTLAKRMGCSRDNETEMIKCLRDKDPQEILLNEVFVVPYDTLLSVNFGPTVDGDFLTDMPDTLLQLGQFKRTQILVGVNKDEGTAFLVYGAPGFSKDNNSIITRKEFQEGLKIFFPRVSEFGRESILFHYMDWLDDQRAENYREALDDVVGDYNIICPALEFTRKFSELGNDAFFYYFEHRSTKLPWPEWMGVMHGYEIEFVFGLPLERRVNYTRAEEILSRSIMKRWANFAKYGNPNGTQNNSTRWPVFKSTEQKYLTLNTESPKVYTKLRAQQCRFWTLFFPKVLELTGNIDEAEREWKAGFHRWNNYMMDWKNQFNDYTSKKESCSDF
Protocol: as §2

[4] = test system: isolated rat brain synaptosomes; assay: 6-OHDA-induced neurotoxicity in isolated rat brain synaptosomes; type: cell-based; conditions: 150 μM, vs non-treated synaptosomes
Protocol: as §1
The synaptosomes were prepared from rat brains by multiple sub-cellular fractionation using a Percoll gradient.
This in vitro model resembles the neurodegenerative processes occurring in PD. Dopamine metabolism and oxidation led to the formation of reactive oxygen species (ROS) and reactive quinones. These processes were catalyzed by the MAOB enzyme. They induced dopamine neurotoxicity and neurodegeneration. The synaptosomes were incubated with 150 μM 6-OHDA for 1 h.
After the incubation, the synaptosomes were centrifuged three times at 15,000× g for 1 min. MTT-test was performed to determine synaptosomal vitality by the method described by Mungarro-Menchaca et al..
The level of GSH was determined by measuring the non-protein SH-groups after precipitation of the proteins with trichloroacetic acid (TCA). The presence of thiols in the supernatant was determined using Elmman’s reagent. The resulting yellow color was measured spectrophotometrically (λ = 412 nm).

| Structure (SMILES) | decrease of GSH level by the toxic agent alone [1] [%] | increase of MDA production by the toxic agent alone [1] [%] | inhibition at 200 µM (AChE) [%] | IC50 (AChE) [µM] | inhibition at 1 µM [2] [%] | IC50 [2] [µM] | inhibition at 1 µM [3] [%] | IC50 [3] [µM] | IC50 (BChE) [µM] | inhibition at 200 µM (BChE) [%] | decrease of GSH level by the toxic agent alone [4] [%] | decrease of synaptosomal viability by the toxic agent alone [4] [%] | MAO-B IC50 [3] |
| --- | --- | --- | --- | --- | --- | --- | --- | --- | --- | --- | --- | --- | --- |
| CC(C)(C)OO [t-BuOOH, tert-butyl hydroperoxide, reference compound] | 50 | 150 |  |  |  |  |  |  |  |  |  |  |  |
| COc1ccc(C)cc1-n1c(C)ccc1C [EM-DC-5, 1-(2-methoxy-5-methylphenyl)-2,5-dimethyl-1H-pyrrole] |  |  | 39.8 ± 2.64 | > 200 | 98 ± 7.3 | > 100 | 99 ± 7.1 | > 100 | 73.8 ± 5.96 | 74 ± 1.56 |  |  |  |
| NCCc1cc(O)c(O)cc1O [Compound 6-OHDA, 6-hydroxydopamine, reference compound] |  |  |  |  |  |  |  |  |  |  | 50 | 50 |  |
| CCC(C(=O)O)n1c(C)ccc1C (centres unmarked) [EM-DC-21, 2-(2,5-dimethyl-1H-pyrrol-1-yl)butanoic acid] |  |  | 0 | > 200 | 99 ± 7.1 | > 100 | 99 ± 7.1 | > 100 | > 200 | 0 |  |  |  |
| Cc1ccc(C)n1-c1ccncc1 [EM-DC-12, 4-(2,5-dimethyl-1H-pyrrol-1-yl)pyridine] |  |  | 65.7 ± 3.25 | 103 ± 5.85 | 70 ± 6.9 | 0.49 ± 0.1 | 70 ± 7.1 | 0.51 ± 0.1 | 72.8 ± 2.53 | 73.2 ± 1.8 |  |  | submicromolar range |
| Cc1ccc(C)n1-c1ccc(C(=O)O)cc1 [EM-DC-2, 4-(2,5-dimethyl-1H-pyrrol-1-yl)benzoic acid] |  |  | 93.6 ± 4.66 | 0.75 ± 0.06 | 75 ± 6.9 | 0.43 ± 0.1 | 75 ± 7.1 |  | 158 ± 11.8 | 57.2 ± 0.58 |  |  |  |
| Cc1ccc(C)n1CCc1ccccc1 [EM-DC-7, 2,5-dimethyl-1-(2-phenylethyl)-1H-pyrrole] |  |  | 11.9 ± 2.33 | > 200 | 80 ± 7.2 | 0.51 ± 0.1 | 75 ± 7.1 | 0.49 ± 0.1 | > 200 | 43.9 ± 1.7 |  |  | submicromolar range |
| Cc1ccc(C)n1-c1ccc(O)cc1 [EM-DC-1, 4-(2,5-dimethyl-1H-pyrrol-1-yl)phenol] |  |  | 7.52 ± 2.07 | > 200 | 55 ± 7.1 | 0.32 ± 0.1 | 99 ± 7.1 | > 100 | 173 ± 7.3 | 53.9 ± 2.14 |  |  |  |
| Cc1ccc(C)n1C1CCN(Cc2ccccc2)CC1 [EM-DC-25, 1-benzyl-4-(2,5-dimethyl-1H-pyrrol-1-yl)piperidine] |  |  | 74.8 ± 1.47 | 87.2 ± 5.7 | 60 ± 7.1 | 0.33 ± 0.1 | 98 ± 7.1 | > 100 | 104 ± 2.5 | 69.8 ± 0.81 |  |  |  |
| Cc1ccc(C)n1C(C)(C)CO [EM-DC-14, 2-(2,5-dimethyl-1H-pyrrol-1-yl)-2-methylpropan-1-ol] |  |  | 33.2 ± 2.03 | > 200 | 75 ± 7.1 | 0.44 ± 0.1 | 75 ± 7.1 | 0.46 ± 0.1 | > 200 | 0 |  |  |  |
| Cc1ccc(C)n1C(CS)C(=O)O (centres unmarked) [EM-DC-15, 2-(2,5-dimethyl-1H-pyrrol-1-yl)-3-sulfanylpropanoic acid] |  |  | 63.9 ± 1.29 | 131 ± 1.85 | 70 ± 7.2 | 0.55 ± 0.1 | 70 ± 7.1 | 0.53 ± 0.1 | > 200 | 19.1 ± 2.47 |  |  |  |
